# Tested on: human iPSC-derived astrocytes (homozygous ApoE 3 or homozygous ApoE4 genotype)
# Experiment: Oxygen consumption (Seahorse XF96), FCCP-uncoupled maximal respiration
# Type: cell-based
# Conditions: hiPSC-derived astrocytes, ApoE3 (FIG. 6) and ApoE4 (FIG. 7); NR 0.5 mM for 24 hours; BHB 0.5 mM or 2 mM or BHP 2 mM for 1 h; FCCP 1 μM
# Experimental: Differentiated human iPSC-derived astrocytes with either a homozygous ApoE 3 genotype or homozygous ApoE4 genotype (and otherwise isogenic) were obtained from Cellular Dynamics International (CDI, Madison, WI, USA). The cells were thawed according to the manufacturer's instructions. Astrocytes were cultured in DMEM supplemented with 10% fetal calf serum and N2 complement. Oxygen consumption in human iPSC-derived astrocytes was measured in a Seahorse XF96 instrument (Seahorse Bioscience, North Billerica, MA, USA). Astrocytes were seeded directly into Seahorse 96-well tissue culture plates (XF96 FluxPaks no. 102416-100; Seahorse Bioscience) at a density of 40,000 cells per well. Cells were incubated for 24 hours with 0.5 mM of Nicotinamide riboside chloride (NR) or fresh medium before experiment. Four days after seeding, the cells were washed twice in KRBH containing 1 mM glucose and incubated for 1 h with the ketone bodies BHB (racemic (D,L) BHB) or BHP (D BHP) at the concentration indicated. The cells were maintained at 37° C. during the experiment. Mitochondrial respiration rates were determined every 6 minutes. […] The oxygen consumption rate in hiPSC-derived astrocytes was measured as an indication of mitochondrial function, using a Seahorse instrument. Through addition of the uncoupling agent FCCP, uncoupled (=maximal) respiration was determined.
smiles,measurement,value
"NC(=O)c1ccc[n+]([C@@H]2O[C@H](CO)[C@@H](O)[C@H]2O)c1 [NR, Nicotinamide riboside chloride]",maximal respiration (uncoupled oxygen consumption rate),Neither ketone bodies alone nor NR treatment significantly increases maximal respiration

# Reference: patent publication US20250134918A1, “COMPOSITIONS AND METHODS USING A NICOTINAMIDE ADENINE DINUCLEOTIDE (NAD+) PRECURSOR AND AT LEAST ONE KETONE OR KETONE PRECURSOR” (SOCIETE DES PRODUITS NESTLE S.A., priority 2018, published 2025)
